SMILES strings stand for the structures. Activity calls are given as the source filed them. No cut-off for these calls is given here.

For series [1], the system named is THP-1. Kind of series: Downregulation of pSTAT3 protein expression in LPS-induced PMA-differentiated human THP-1 cells at […] pretreated with LPS for 3 hrs followed by compound addition and measured after 6 hrs by Western blot analysis. In kind it is functional, cell-based. Conditions: dose lower 25.0 mg/ml. (In western blotting, separated proteins are transferred to a membrane and probed.)

Series [2] concerns THP-1. Kind of series: Cytotoxicity against PMA-differentiated human THP-1 cells assessed as reduction in cell viability at 25 to 100 ug/ml measured after 24 hrs by MTT assay. In kind it is toxicity, cell-based. Conditions: thp-1, 24 h, dose 25-100 µg/ml. (In general: Formazan colour is commonly taken as a measure of viable cells.)
Series [3] has as its system THP-1. Kind of series: Antiinflammatory activity in PMA-differentiated human THP-1 cells assessed as reduction in LPS-induced IL-6 secretion at 25 to 30 ug/ml pretreated with LPS for 3 hrs followed by compound addition and measured after 6 hrs by ELISA. In kind it is functional, cell-based. Conditions: dose 25-30 µg/ml.

`O=C1O/C(=C(/C(=O)O)c2ccc(O)cc2)C(O)=C1c1ccc2c(O)c(O)cc(C3=C(O)/C(=C(\C(=O)O)c4ccc(O)cc4)OC3=O)c2c1`: the outcome in series [1] and in series [3] was Active. Also, the Activity entry in series [2] is on record as “Non-Toxic”.

The record behind these values is ChEMBL document CHEMBL5344446, “Constituents from the Polar Extract of Pisolithus arhizus and Their Anti-inflammatory Activity” (J Nat Prod, 2024).
